From patent US4855303A, “Fluorine containing renin inhibitors” (Pfizer Inc., priority 1988, dated 1989)

Target: T1, renin (Homo sapiens, UniProt P00797)
T1 sequence (P00797 67-406): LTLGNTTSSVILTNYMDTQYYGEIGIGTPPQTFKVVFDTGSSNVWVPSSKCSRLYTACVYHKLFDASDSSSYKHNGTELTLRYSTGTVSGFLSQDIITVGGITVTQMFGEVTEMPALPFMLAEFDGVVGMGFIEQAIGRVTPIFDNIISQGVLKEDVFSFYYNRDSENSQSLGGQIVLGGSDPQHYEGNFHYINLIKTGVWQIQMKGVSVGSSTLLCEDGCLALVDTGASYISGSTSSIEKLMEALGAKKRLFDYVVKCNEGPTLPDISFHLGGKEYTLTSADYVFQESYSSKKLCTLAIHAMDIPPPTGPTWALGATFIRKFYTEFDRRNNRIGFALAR
Experiment: renin inhibitory potency
Type: biochemical
Conditions: 2S,5S product compared with the 2R,5R isomer separated by HPLC
Description: The activity of the compounds of the present invention as inhibitors of the angiotensinogen-cleaving activity of renin may be determined by studying (1) their ability to inhibit the angiotensinogen-cleaving activity of renin in vitro and (2) their ability to antagonize the exogenous renin-induced pressor response in vivo.

- renin inhibitory potency: more active
Compound: CCCC[C@H](NC(=O)[C@H](Cc1ccccc1)NC(=O)N1CCOCC1)C(=O)N[C@@H](CC1CCCCC1)C(=O)C(F)(F)[C@@H](CC(C)C)C(=O)OCC [Example 10, Ethyl (2S,5S)-2-isobutyl-3,3-difluoro-4-keto-5-N-(N-[morpholinocarbonyl-L-phenylalanyl]-L-norleucyl)-amino-6-cyclohexylhexanoate]
